Source: ChEMBL document CHEMBL2346513, “Synthesis and evaluation of methylsulfonylnitrobenzamides (MSNBAs) as inhibitors of the thyroid hormone receptor-coactivator interaction” (Bioorg Med Chem Lett, 2013)

Assays:
[1] = target: T1, Thyroid hormone receptor alpha (Homo sapiens, UniProt P10827); experiment: Inhibition of TRalpha-LBD (unknown origin) interaction to texas red-labeled SRC2-2 peptide by fluorescence polarization assay
T1 sequence (P10827 whole entry): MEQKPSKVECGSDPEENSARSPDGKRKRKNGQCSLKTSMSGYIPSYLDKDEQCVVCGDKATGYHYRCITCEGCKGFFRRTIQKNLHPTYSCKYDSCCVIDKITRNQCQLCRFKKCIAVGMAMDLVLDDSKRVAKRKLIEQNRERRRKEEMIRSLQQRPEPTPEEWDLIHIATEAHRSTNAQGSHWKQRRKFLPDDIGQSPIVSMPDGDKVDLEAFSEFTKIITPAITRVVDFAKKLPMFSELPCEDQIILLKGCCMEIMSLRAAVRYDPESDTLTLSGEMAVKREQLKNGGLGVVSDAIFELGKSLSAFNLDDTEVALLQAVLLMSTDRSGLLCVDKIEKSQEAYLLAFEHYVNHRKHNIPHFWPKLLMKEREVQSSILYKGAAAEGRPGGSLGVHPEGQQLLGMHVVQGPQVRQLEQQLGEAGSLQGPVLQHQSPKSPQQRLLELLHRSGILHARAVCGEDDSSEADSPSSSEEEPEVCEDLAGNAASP

[2] = test system: HepG2; experiment: Cytotoxicity against human HepG2 cells assessed as ATP level after 72 hrs by CellTiter-Glo assay; format: cell-based; conditions: HepG2, 72 h
[3] = target: T2, Vitamin D3 receptor (Homo sapiens, UniProt P11473); experiment: Inhibition of VDR (unknown origin) interaction to SRC2-3 peptide by fluorescence polarization assay
T2 sequence (P11473 whole entry): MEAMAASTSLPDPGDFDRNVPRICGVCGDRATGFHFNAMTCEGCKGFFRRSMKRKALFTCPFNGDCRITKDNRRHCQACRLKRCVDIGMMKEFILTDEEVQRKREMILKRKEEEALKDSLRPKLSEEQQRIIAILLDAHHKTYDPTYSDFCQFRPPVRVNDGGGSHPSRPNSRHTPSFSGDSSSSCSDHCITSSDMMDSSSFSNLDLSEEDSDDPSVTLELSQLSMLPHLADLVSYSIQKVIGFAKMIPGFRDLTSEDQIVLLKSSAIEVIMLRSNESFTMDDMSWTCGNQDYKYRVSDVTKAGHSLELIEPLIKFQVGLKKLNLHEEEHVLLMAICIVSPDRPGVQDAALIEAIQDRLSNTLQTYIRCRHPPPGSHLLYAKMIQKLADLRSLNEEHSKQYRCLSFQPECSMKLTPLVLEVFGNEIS

[4] = target: T3, Thyroid hormone receptor beta (Homo sapiens, UniProt P10828); experiment: Inhibition of TRbeta-LBD (unknown origin) interaction to texas red-labeled SRC2-2 peptide by fluorescence polarization assay
T3 sequence (P10828 whole entry): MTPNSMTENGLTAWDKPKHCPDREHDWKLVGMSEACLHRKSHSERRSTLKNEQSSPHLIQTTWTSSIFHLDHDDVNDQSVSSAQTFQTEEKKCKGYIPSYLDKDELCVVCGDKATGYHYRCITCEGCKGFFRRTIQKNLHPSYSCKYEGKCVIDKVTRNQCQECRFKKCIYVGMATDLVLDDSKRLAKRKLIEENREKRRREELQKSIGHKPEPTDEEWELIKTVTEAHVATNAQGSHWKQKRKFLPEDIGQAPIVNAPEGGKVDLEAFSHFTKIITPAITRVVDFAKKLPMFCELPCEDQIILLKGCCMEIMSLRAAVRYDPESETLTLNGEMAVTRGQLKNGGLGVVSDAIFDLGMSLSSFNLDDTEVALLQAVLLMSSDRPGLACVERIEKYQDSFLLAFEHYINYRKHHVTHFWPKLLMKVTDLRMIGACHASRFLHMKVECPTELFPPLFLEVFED

Row | Structure (SMILES) | IC50 [1] [µM] | IC50 [3] [µM] | IC50 [4] [µM] | EC50 [2] [µM]
1 | CS(=O)(=O)c1ccc(C(=O)NCC(=O)NC23CC4CC(CC(C4)C2)C3)cc1[N+](=O)[O-] | 9.6 | > 60 | 16 | > 27
2 | CN(CC(=O)N1CCN(c2ccccc2)CC1)C(=O)c1ccc(S(C)(=O)=O)c([N+](=O)[O-])c1 | > 60 | > 60 | > 60 | > 27
3 | CC1CCN(C(=O)C2CCN(C(=O)c3ccc(S(C)(=O)=O)c([N+](=O)[O-])c3)CC2)CC1 | > 60 | > 60 | > 60 | > 27
4 | CS(=O)(=O)c1ccc(C(=O)NCCC(=O)N2Cc3ccccc3C2)cc1[N+](=O)[O-] | > 60 | > 60 | > 60 | 11.2
5 | CS(=O)(=O)c1ccc(C(=O)NCCC(=O)N2CCC(c3ccccc3)CC2)cc1[N+](=O)[O-] | > 60 | > 60 | > 60 | > 27
6 | CS(=O)(=O)c1ccc(C(=O)NCCC(=O)N2CCN(c3ccccc3F)CC2)cc1[N+](=O)[O-] | > 60 | 66 | > 60 | > 27
7 | CN(Cc1cccc(F)c1)C(=O)CCCNC(=O)c1ccc(S(C)(=O)=O)c([N+](=O)[O-])c1 | > 60 | > 60 | > 60 | > 27
8 | CC1CCN(C(=O)CCCNC(=O)c2ccc(S(C)(=O)=O)c([N+](=O)[O-])c2)CC1 | > 60 | > 60 | > 60 | > 27
9 | CS(=O)(=O)c1ccc(C(=O)NCCCC(=O)N2CCc3ccccc3C2)cc1[N+](=O)[O-] | > 60 | > 60 | > 60 | > 27
10 | CN(CC(=O)N1CCC(c2ccccc2)CC1)C(=O)c1ccc(S(C)(=O)=O)c([N+](=O)[O-])c1 | > 60 | > 60 | > 60 | > 27
11 | CN(CC(=O)N1CCN(c2ccccc2F)CC1)C(=O)c1ccc(S(C)(=O)=O)c([N+](=O)[O-])c1 | > 60 | > 60 | > 60 | 10.3
12 | CCCN(C(=O)CNC(=O)c1ccc(S(C)(=O)=O)c([N+](=O)[O-])c1)c1ccccc1 | 1.9 | > 60 | 6.6 | > 27
13 | Cc1ccc(N2CCN(C(=O)C3CCN(C(=O)c4ccc(S(C)(=O)=O)c([N+](=O)[O-])c4)CC3)CC2)cc1 | > 60 | > 60 | > 60 | > 27
14 | CS(=O)(=O)c1ccc(C(=O)N2CCC(C(=O)N(Cc3ccccc3)c3ccccc3)CC2)cc1[N+](=O)[O-] | > 60 | > 60 | > 60 | > 27
15 | CN(Cc1cccc(F)c1)C(=O)CNC(=O)c1ccc(S(C)(=O)=O)c([N+](=O)[O-])c1 | > 60 | > 60 | > 60 | > 27
16 | CS(=O)(=O)c1ccc(C(=O)NCCC(=O)N2CCN(c3ccc(F)cc3)CC2)cc1[N+](=O)[O-] | > 60 | > 60 | > 60 | > 27
17 | CS(=O)(=O)c1ccc(C(=O)NCC(=O)N2CCN(c3ccc(C(F)(F)F)cc3)CC2)cc1[N+](=O)[O-] | > 60 | > 60 | > 60 | > 27
18 | CS(=O)(=O)c1ccc(C(=O)NCCCC(=O)N2CCc3ccccc32)cc1[N+](=O)[O-] | > 60 | > 60 | > 60 | > 27
19 | CS(=O)(=O)c1ccc(C(=O)NCCCC(=O)NC23CC4CC(CC(C4)C2)C3)cc1[N+](=O)[O-] | > 60 | > 60 | 10.6 | > 27
20 | CN(Cc1ccccc1F)C(=O)CCCNC(=O)c1ccc(S(C)(=O)=O)c([N+](=O)[O-])c1 | > 60 | > 60 | > 60 | > 27

Further lines, with some results ahead:

Row | IC50 [1] [µM] | IC50 [3] [µM] | IC50 [4] [µM] | Structure (SMILES) | EC50 [2] [µM]
21 | > 60 | > 60 | > 60 | Cc1ccc(N2CCN(C(=O)CCNC(=O)c3ccc(S(C)(=O)=O)c([N+](=O)[O-])c3)CC2)cc1 | > 27
22 | > 60 | > 60 | > 60 | CC1Cc2ccccc2N1C(=O)C1CCN(C(=O)c2ccc(S(C)(=O)=O)c([N+](=O)[O-])c2)CC1 (stereo not given) | > 27
23 | > 60 | > 60 | > 60 | CC1Cc2ccccc2N1C(=O)CN(C)C(=O)c1ccc(S(C)(=O)=O)c([N+](=O)[O-])c1 (stereo not given) | 5.5
24 | 29 | > 60 | 59 | CS(=O)(=O)c1ccc(C(=O)NCCCC(=O)N(Cc2ccccc2)Cc2ccccc2)cc1[N+](=O)[O-] | > 27
25 | 44 | > 60 | > 60 | CS(=O)(=O)c1ccc(C(=O)NCC(=O)N2CCCCC2)cc1[N+](=O)[O-] | 14
26 | > 60 | > 60 | > 60 | CN(Cc1ccccc1F)C(=O)CN(C)C(=O)c1ccc(S(C)(=O)=O)c([N+](=O)[O-])c1 | > 27
27 | > 60 | > 60 | > 60 | CS(=O)(=O)c1ccc(C(=O)NCCCC(=O)N2CCN(c3ccccc3F)CC2)cc1[N+](=O)[O-] | > 27
28 | > 60 | > 60 | > 60 | CC(C)N(C(=O)CCNC(=O)c1ccc(S(C)(=O)=O)c([N+](=O)[O-])c1)C(C)C | > 27
29 | > 60 | > 60 | > 60 | CCCN(C(=O)CCCNC(=O)c1ccc(S(C)(=O)=O)c([N+](=O)[O-])c1)c1ccccc1 | > 27
30 | > 60 | > 60 | > 60 | CN(Cc1cccc(F)c1)C(=O)C1CCN(C(=O)c2ccc(S(C)(=O)=O)c([N+](=O)[O-])c2)CC1 | > 27
31 | > 60 | > 60 | > 60 | CS(=O)(=O)c1ccc(C(=O)N2CCC(C(=O)N(Cc3ccccc3)Cc3ccccc3)CC2)cc1[N+](=O)[O-] | > 27
32 | > 60 | > 60 | > 60 | CS(=O)(=O)c1ccc(C(=O)N2CCC(C(=O)N3Cc4ccccc4C3)CC2)cc1[N+](=O)[O-] | > 27
33 | 33 | > 60 | 38 | CC1CCN(C(=O)CNC(=O)c2ccc(S(C)(=O)=O)c([N+](=O)[O-])c2)CC1 | > 27
34 | > 60 | > 60 | > 60 | CN(Cc1cccc(F)c1)C(=O)CN(C)C(=O)c1ccc(S(C)(=O)=O)c([N+](=O)[O-])c1 | > 27
35 | > 60 | > 60 | > 60 | CS(=O)(=O)c1ccc(C(=O)N2CCC(C(=O)N3CCN(c4ccccc4)CC3)CC2)cc1[N+](=O)[O-] | > 27
36 | > 60 | > 60 | > 60 | CS(=O)(=O)c1ccc(C(=O)NCCC(=O)N2CCN(c3ccccc3)CC2)cc1[N+](=O)[O-] | > 27
37 | > 60 | > 60 | > 60 | CS(=O)(=O)c1ccc(C(=O)NCCC(=O)N2CCCc3ccccc32)cc1[N+](=O)[O-] | 10.5
38 | > 60 | > 60 | > 60 | CN1CCN(C(=O)C2CCN(C(=O)c3ccc(S(C)(=O)=O)c([N+](=O)[O-])c3)CC2)CC1 | > 27
39 | > 60 | > 60 | 39 | CN(Cc1ccccc1)C(=O)CNC(=O)c1ccc(S(C)(=O)=O)c([N+](=O)[O-])c1 | > 27
40 | > 60 | > 60 | > 60 | CS(=O)(=O)c1ccc(C(=O)N2CCC(C(=O)NC34CC5CC(CC(C5)C3)C4)CC2)cc1[N+](=O)[O-] | > 27
